Test results from patent US11180504B2 (ORCHID PHARMA LTD., priority 2016, dated 2021).
Converted amounts (≈) assume the structure as drawn. Like-named read-outs stand apart in the source and are kept apart here.

How the values were obtained:
[1] = system: carbapenemase producing K. pneumoniae; assay: MIC by broth micro-dilution (CLSI), carbapenemase producing K. pneumoniae; assay type: cell-based, Klebsiella pneumoniae
[2] = system: carbapenem sensitive Pseudomonas aeruginosa; assay: MIC by broth micro-dilution (CLSI), carbapenem sensitive P. aeruginosa; assay type: cell-based
[3] = system: carbapenem sensitive Escherichia coli; assay: MIC by broth micro-dilution (CLSI), carbapenem sensitive E. coli; assay type: cell-based
[4] = system: methicillin-sensitive Staphylococcus aureus; assay: MIC by broth micro-dilution (CLSI), methicillin-sensitive S. aureus; assay type: cell-based; conditions: MSSA S. aureus ATCC29213
[5] = KPC-2 K. pneumoniae ATCC BAA-1705
[6] = Meropenem susceptible P. aeruginosa ATCC27853
[7] = Klebsiella pneumoniae, ATCCBAA1705, KPC-2 K. pneumoniae ATCC BAA-1705, read-out: MIC
[8] = Pseudomonas aeruginosa, ATCC27853, Meropenem susceptible P. aeruginosa ATCC27853, read-out: MIC
[9] = Escherichia coli, ATCC25922, ESBL −ve E. coli ATCC25922, read-out: MIC
[10] = Staphylococcus aureus, ATCC 29213 / MSSA, read-out: MIC
[11] = Staphylococcus aureus, ATCC29213|MSSA, read-out: MIC

| Structure (SMILES) | MIC [1, 5] | MIC [2, 6] | MIC ([3]; ESBL −ve E. coli ATCC25922) | MIC [4] | MIC [1, 7] | MIC [2, 8] | MIC [3, 9] | MIC [4, 10] | MIC [4, 11] |
| --- | --- | --- | --- | --- | --- | --- | --- | --- | --- |
| C[C@@H](NC(=O)Cn1cnnn1)[C@H]1C(=O)N2C(C(=O)O)=C(S[C@@H]3CN[C@H](C(=O)N4CCC5CN(C[C@@H](O)CN)CCC54)C3)[C@H](C)[C@H]12 (single isomer, unassigned) [Example 521] | 0.5 mg/L (≈ 0.773 µM) |  |  |  |  | 2 mg/L (≈ 3.09 µM) | 0.5 mg/L (≈ 0.773 µM) | 2 mg/L (≈ 3.09 µM) |  |
| C[C@@H](NC(=O)Cn1cnnn1)[C@H]1C(=O)N2C(C(=O)O)=C(S[C@@H]3CN[C@H](C(=O)N4CC5CCNCC5C4)C3)[C@H](C)[C@H]12 (single isomer, unassigned) [Example 528] | 1 mg/L (≈ 1.74 µM) | 1 mg/L (≈ 1.74 µM) | 0.25 mg/L (≈ 0.436 µM) | 4 mg/L (≈ 6.97 µM) |  |  |  |  |  |
| C[C@@H](NC(=O)Cn1cnnn1)[C@H]1C(=O)N2C(C(=O)O)=C(S[C@@H]3CN[C@H](C(=O)N4CCC5CNCC5C4)C3)[C@H](C)[C@H]12 (single isomer, unassigned) [Example 533] |  |  |  |  | 2 mg/L (≈ 3.49 µM) | 2 mg/L (≈ 3.49 µM) | 0.25 mg/L (≈ 0.436 µM) |  | 4 mg/L (≈ 6.97 µM) |
| C[C@@H](NC(=O)Cn1cnnn1)[C@H]1C(=O)N2C(C(=O)O)=C(S[C@@H]3CN[C@H](C(=O)N4CCC5CNCC5(CO)C4)C3)[C@H](C)[C@H]12 (single isomer, unassigned) [Example 537] | 2 mg/L (≈ 3.31 µM) | 2 mg/L (≈ 3.31 µM) | 0.25 mg/L (≈ 0.414 µM) | 4 mg/L (≈ 6.63 µM) |  |  |  |  |  |
| C[C@@H](NC(=O)Cn1cnnn1)[C@H]1C(=O)N2C(C(=O)O)=C(S[C@@H]3CN[C@H](C(=O)N4CC5CCNCC5(CO)C4)C3)[C@H](C)[C@H]12 (single isomer, unassigned) [Example 539] |  |  |  |  | 1 mg/L (≈ 1.66 µM) | 2 mg/L (≈ 3.31 µM) | 0.25 mg/L (≈ 0.414 µM) | 4 mg/L (≈ 6.63 µM) |  |
| C[C@@H](NC(=O)Cn1cnnn1)[C@H]1C(=O)N2C(C(=O)O)=C(S[C@@H]3CN[C@H](C(=O)N4CC5CCNCC5(CO)C4)C3)[C@H](C)[C@H]12 (single isomer, unassigned) [Example 542] | 2 mg/L (≈ 3.31 µM) | 2 mg/L (≈ 3.31 µM) | 0.25 mg/L (≈ 0.414 µM) | 4 mg/L (≈ 6.63 µM) |  |  |  |  |  |

Further lines, results first:

| MIC [1, 5] | MIC [2, 6] | MIC ([3]; ESBL −ve E. coli ATCC25922) | MIC [4] | MIC [1, 7] | MIC [2, 8] | MIC [3, 9] | MIC [4, 10] | MIC [4, 11] | Structure (SMILES) |
| --- | --- | --- | --- | --- | --- | --- | --- | --- | --- |
| 2 mg/L (≈ 3.55 µM) | 1 mg/L (≈ 1.77 µM) | 0.25 mg/L (≈ 0.444 µM) | 4 mg/L (≈ 7.1 µM) |  |  |  |  |  | C[C@@H](NC(=O)Cn1cnnn1)[C@H]1C(=O)N2C(C(=O)O)=C(S[C@@H]3CN[C@H](C(=O)N4CC(O)C(CN)C4)C3)[C@H](C)[C@H]12 (single isomer, unassigned) [Example 511] |
|  |  |  |  | 16 mg/L (≈ 29.2 µM) | > 128 mg/L | 2 mg/L (≈ 3.64 µM) | 16 mg/L (≈ 29.2 µM) |  | C[C@@H](NC(=O)CN1CCC2CNCCC21)[C@H]1C(=O)N2C(C(=O)O)=C(S[C@@H]3CN[C@H](C(=O)N(C)C)C3)[C@H](C)[C@H]12 (single isomer, unassigned) [Example 519] |
|  |  |  |  | 1 mg/L (≈ 1.74 µM) | 1 mg/L (≈ 1.74 µM) | 0.125 mg/L (≈ 0.218 µM) | 4 mg/L (≈ 6.97 µM) |  | C[C@@H](NC(=O)Cn1cnnn1)[C@H]1C(=O)N2C(C(=O)O)=C(S[C@@H]3CN[C@H](C(=O)N4CC5CCNCC5C4)C3)[C@H](C)[C@H]12 (single isomer, unassigned) [Example 527] |
|  |  |  |  | 1 mg/L (≈ 1.74 µM) | 0.5 mg/L (≈ 0.869 µM) | 0.25 mg/L (≈ 0.434 µM) | 2 mg/L (≈ 3.47 µM) |  | C[C@@H](NC(=O)Cn1cnnn1)[C@H]1C(=O)N2C(C(=O)O)=C(S[C@@H]3CN[C@H](C(=O)N4CC5(CC(N)CO5)C4)C3)[C@H](C)[C@H]12 (single isomer, unassigned) [Example 530] |
| 2 mg/L (≈ 3.47 µM) | 1 mg/L (≈ 1.74 µM) | 0.125 mg/L (≈ 0.217 µM) | 4 mg/L (≈ 6.95 µM) |  |  |  |  |  | C[C@@H](NC(=O)Cn1cnnn1)[C@H]1C(=O)N2C(C(=O)O)=C(S[C@@H]3CN[C@H](C(=O)N4CC5(CC(N)CO5)C4)C3)[C@H](C)[C@H]12 (single isomer, unassigned) [Example 531] |
| 2 mg/L (≈ 3.09 µM) | 2 mg/L (≈ 3.09 µM) | 0.25 mg/L (≈ 0.387 µM) | 4 mg/L (≈ 6.18 µM) |  |  |  |  |  | C[C@@H](NC(=O)Cn1cnnn1)[C@H]1C(=O)N2C(C(=O)O)=C(S[C@@H]3CN[C@H](C(=O)N4CCC5CN(C[C@@H](O)CN)CCC54)C3)[C@H](C)[C@H]12 (single isomer, unassigned) [Example 532] |
| 1 mg/L (≈ 1.74 µM) | 1 mg/L (≈ 1.74 µM) | 0.125 mg/L (≈ 0.218 µM) | 2 mg/L (≈ 3.49 µM) |  |  |  |  |  | C[C@@H](NC(=O)Cn1cnnn1)[C@H]1C(=O)N2C(C(=O)O)=C(S[C@@H]3CN[C@H](C(=O)N4CCC5CNCC5C4)C3)[C@H](C)[C@H]12 (single isomer, unassigned) [Example 534] |
|  |  |  |  | 2 mg/L (≈ 3.31 µM) | 1 mg/L (≈ 1.66 µM) | 0.25 mg/L (≈ 0.414 µM) |  | 2 mg/L (≈ 3.31 µM) | C[C@@H](NC(=O)Cn1cnnn1)[C@H]1C(=O)N2C(C(=O)O)=C(S[C@@H]3CN[C@H](C(=O)N4CCC5CNCC5(CO)C4)C3)[C@H](C)[C@H]12 (single isomer, unassigned) [Example 535] |
